Data published in the NIST ThermoML archive (doi:10.1021/je100256w).

Assay: cn = amount concentration of the nth substance listed, in mol/dm3
Settings: 101 kPa, Liquid, Dip Cell

CCCCCCCCCCCCCCCC[N+](C)(C)CCCCCC[N+](C)(C)CCCCCCCCCCCCCCCC.[Br-].[Br-] + O
electrical conductivity [S/m]
Settings	298 K	303 K	308 K	313 K
c1 = 3.3e-06	7.1e-08	7.2e-08	7.3e-08	7.5e-08
c1 = 6.6e-06	1.31e-07	1.53e-07	1.22e-07	1.33e-07
c1 = 9.9e-06	2.04e-07	2.14e-07	2.09e-07	1.92e-07
c1 = 1.32e-05	2.59e-07	2.69e-07	2.84e-07	2.42e-07
c1 = 1.64e-05	3.27e-07	3.46e-07	3.66e-07	3.21e-07
c1 = 1.96e-05	3.99e-07	4.09e-07	4.21e-07	3.95e-07
c1 = 2.28e-05	4.86e-07	5.06e-07	5.18e-07	4.69e-07
c1 = 2.6e-05	5.26e-07	5.46e-07	5.67e-07	5.41e-07
c1 = 2.91e-05	6.16e-07	6.36e-07	6.57e-07	6.23e-07
c1 = 3.23e-05	6.92e-07	7.02e-07	7.22e-07	6.81e-07
c1 = 3.54e-05	7.86e-07	8.06e-07	8.22e-07	7.7e-07
c1 = 3.85e-05	8.34e-07	8.54e-07	8.91e-07	8.38e-07
c1 = 4.15e-05	9.29e-07	9.49e-07	9.65e-07	9.01e-07
c1 = 4.46e-05	9.65e-07	9.95e-07	1.042e-06	9.69e-07
c1 = 4.76e-05	1.031e-06	1.031e-06	1.071e-06	1.041e-06
c1 = 5.06e-05	1.084e-06	1.084e-06	1.113e-06	1.113e-06
c1 = 5.36e-05	1.145e-06	1.145e-06	1.17e-06	1.18e-06
c1 = 5.66e-05	1.186e-06	1.206e-06	1.226e-06	1.246e-06
c1 = 5.96e-05	1.209e-06	1.249e-06	1.269e-06	1.299e-06
c1 = 6.25e-05	1.272e-06	1.292e-06	1.312e-06	1.352e-06
c1 = 6.54e-05	1.326e-06	1.356e-06	1.376e-06	1.396e-06
c1 = 6.83e-05	1.359e-06	1.379e-06	1.399e-06	1.447e-06
c1 = 7.12e-05	1.396e-06	1.416e-06	1.456e-06	1.486e-06
c1 = 7.41e-05	1.437e-06	1.457e-06	1.477e-06	1.541e-06
c1 = 7.69e-05	1.462e-06	1.482e-06	1.512e-06	1.59e-06

O=C([O-])c1ccccc1O.[Na+] [sodium salicylate] + O
electrical conductivity [S/m]
Settings	298 K	303 K	308 K	313 K
c1 = 3.09e-05	2.48e-05	2.4e-05	2.71e-05	3.69e-05
c1 = 6.1e-05	4.76e-05	4.74e-05	5.24e-05	6.8e-05
c1 = 9.04e-05	6.66e-05	6.95e-05	7.56e-05	9.61e-05
c1 = 0.000119	8.34e-05	8.73e-05	9.64e-05	0.000122
c1 = 0.000147	0.000102	0.000107	0.000118	0.000149
c1 = 0.0001744	0.000118	0.000125	0.000136	0.000173
c1 = 0.0002064	0.000135	0.000144	0.000157	0.000197
c1 = 0.0002376	0.000152	0.000163	0.000176	0.000208
c1 = 0.0002778	0.000173	0.000185	0.0002	0.000237
c1 = 0.0003166	0.000192	0.000203	0.000209	0.000264
c1 = 0.0003541	0.000204	0.00021	0.000228	0.000286
c1 = 0.0003903	0.00021	0.000227	0.000248	0.000309
c1 = 0.0004339	0.000226	0.000248	0.00027	0.000327
c1 = 0.0004757	0.000244	0.000266	0.00029	0.000363
c1 = 0.0005237	0.000261	0.000288	0.000315	0.000393
c1 = 0.0005695	0.000281	0.000307	0.000338	0.000419
c1 = 0.0006132	0.000297	0.000325	0.000357	0.000441
c1 = 0.000655	0.000311	0.000342	0.000373	0.000463
c1 = 0.0007014	0.000322	0.00036	0.000394	0.000486
c1 = 0.0007517	0.000344	0.000378	0.000412	0.000511
c1 = 0.0007993	0.00036	0.000395	0.000434	0.000533
c1 = 0.0008444	0.000373	0.000409	0.000457	0.000547
c1 = 0.0008974	0.000389	0.000422	0.000482	0.000572
c1 = 0.0009472	0.000401	0.000448	0.000502	0.000592
c1 = 0.001003	0.000417	0.000459	0.000527	0.000614
c1 = 0.001063	0.000433	0.000483	0.000551	0.000635
c1 = 0.001123	0.00045	0.000492	0.000561	0.000656
c1 = 0.001181	0.000464	0.000515	0.000594	0.000674
c1 = 0.001241	0.000474	0.000535	0.000613	0.000692
c1 = 0.001301	0.000494	0.000552	0.000631	0.000712
